We go through eight molecules from patent publication US11607461B2, “Compositions and methods for genetically modifying myosin phosphatase target subunit (Mypt1) gene for lowering blood pressure” (University of Maryland, Baltimore, priority 2016, dated 2023).

Series [1] concerns First-order mesenteric arteries (MA1). Kind of series: Wire myography: vasorelaxation to DEA/NO of intact arteries activated with phenylephrine. Further details: species or system mouse. The note with it: for EC50: pre-constriction with PE 10 μM, read-out: EC50 relaxation to DEA/NO. The text has this: First-order mesenteric arteries (2 mm length; 200-250 μm ID) were dissected free of connective tissue in a HEPES-bicarbonate physiological saline solution containing the following concentrations (in mM): 112 NaCl, 25.7 NaHCO3, 4.9 KCl, 2.0 CaCl2, 1.2 MgSO4, 1.2 KH2PO4, 11.5 glucose, and 10 HEPES. The solution was at pH 7.4 and maintained at 37 C for experiments. Arteries were mounted on a 4-chamber wire myograph (Model 610M, Danish Myo Technology, Aarhus, Denmark). Force was continuously recorded and measured at steady state. Starting tension (IC90) was equally applied to all arteries as previously described (Reho et al., Am J Physiol Heart Circ Physiol 307: H563-573, 2014). Arteries were then primed with 2 separate dose of phenylephrine (10 μM) and allowed to equilibrate for 20 minutes in fresh, heated HEPES-bicarbonate buffer. Intact arteries were subjected to dose response to phenylephrine (α-adrenergic agonist; 1 nM-100 μM), U46619 (thromboxane mimetic; 1 nM-10 μM), and angiotensin II (1 nM-10 μM). Maximal response of MAs to depolarization was assessed with 100 mM KCl. A subset of arteries was permeabilized with α-toxin (1000 U/mL) and subjected to calcium clamp in high relaxing solution (pCa9) containing the following (in mM): 60 KMS, 5 EGTA, 0.02 CaCl2, 9.26 MgCl2, 5.2 Na2ATP, 25 creatine phosphate, and 25 BES with pH 7.1 (intracellular pH) by 1N KOH. […] Vasorelaxation responses to the NO donor DEA/NO were assessed in intact arteries activated with a sub-maximal concentration of phenylephrine (10 μM). Dose response to 8-Br-cGMP (1 nM-100 μM) were assessed in α-toxin permeabilized, calcium-clamped (pCa6; 1 μM) arteries. […]
All data are presented as means±SEM. Data were analyzed and graphed using SigmaPlot software (SYSTAT, Chicago, Ill.). mRNA and protein data and mean arterial pressures were analyzed using a one way ANOVA. Vascular function data were analyzed via One way ANOVA and a Bonferroni post-hoc test or Two way repeated measures ANOVA and a Bonferroni post-hoc test. EC50 were calculated via standard curve analysis. […]

The test system is the same in series [2]. Nature of the series: Wire myography: force generation, dose response to phenylephrine in intact arteries. The conditions noted are these: Mus musculus, read-out: EC50 force generation to PE. The text has this: (§1) First-order mesenteric arteries (2 mm length; 200-250 μm ID) were dissected free of connective tissue in a HEPES-bicarbonate physiological saline solution containing the following concentrations (in mM): 112 NaCl, 25.7 NaHCO3, 4.9 KCl, 2.0 CaCl2, 1.2 MgSO4, 1.2 KH2PO4, 11.5 glucose, and 10 HEPES. The solution was at pH 7.4 and maintained at 37 C for experiments. Arteries were mounted on a 4-chamber wire myograph (Model 610M, Danish Myo Technology, Aarhus, Denmark). Force was continuously recorded and measured at steady state. Starting tension (IC90) was equally applied to all arteries as previously described (Reho et al., Am J Physiol Heart Circ Physiol 307: H563-573, 2014). Arteries were then primed with 2 separate dose of phenylephrine (10 μM) and allowed to equilibrate for 20 minutes in fresh, heated HEPES-bicarbonate buffer. Intact arteries were subjected to dose response to phenylephrine (α-adrenergic agonist; 1 nM-100 μM), U46619 (thromboxane mimetic; 1 nM-10 μM), and angiotensin II (1 nM-10 μM). Maximal response of MAs to depolarization was assessed with 100 mM KCl. A subset of arteries was permeabilized with α-toxin (1000 U/mL) and subjected to calcium clamp in high relaxing solution (pCa9) containing the following (in mM): 60 KMS, 5 EGTA, 0.02 CaCl2, 9.26 MgCl2, 5.2 Na2ATP, 25 creatine phosphate, and 25 BES with pH 7.1 (intracellular pH) by 1N KOH. Permeabilized arteries were subjected to dose response of calcium. Phenylephrine-induced calcium sensitization was performed under calcium clamp at a sub-maximal concentration of calcium (pCa6; 1 μM) with intracellular calcium stores depleted by preincubation of arteries with 10 μM A-23187. Vessels were activated with 10 μM phenylephrine with or without preincubation with L-NAME (100 μM). Vasorelaxation responses to the NO donor DEA/NO were assessed in intact arteries activated with a sub-maximal concentration of phenylephrine (10 μM). Dose response to 8-Br-cGMP (1 nM-100 μM) were assessed in α-toxin permeabilized, calcium-clamped (pCa6; 1 μM) arteries. Relaxation data are presented as percent of maximal force. All chemicals were purchased from Sigma-Aldrich (St Louis, Mo.).
(§2) All data are presented as means±SEM. Data were analyzed and graphed using SigmaPlot software (SYSTAT, Chicago, Ill.). mRNA and protein data and mean arterial pressures were analyzed using a one way ANOVA. Vascular function data were analyzed via One way ANOVA and a Bonferroni post-hoc test or Two way repeated measures ANOVA and a Bonferroni post-hoc test. EC50 were calculated via standard curve analysis. Significance was accepted with a p<0.05.

The test system is the same in series [3]. Nature of the series: Wire myography: relaxation to 8-Br-cGMP of α-toxin permeabilized, calcium-clamped arteries. The conditions noted are these: for EC50: α-toxin permeabilized, pCa6. Details: species or system mouse.
From the text: as §1, §2

The subject of series [4] is PPP1R12A (Mypt1) exon 24 flanking region. Nature of the series: Surveyor nuclease assay on genomic PCR products of transfected HEK293T cells. It is filed as cell-based, human. The note with it: constructs tested individually; for Surveyor nuclease products (sizes): control ~750 bp. The method, then:
HEK293T cells were seeded at a density of 1×10^5 cells/well in 24-well plates. After 24 hours, while cell confluence reached approximately 80%, cells were transfected with 1µg of sgRNA-px601 vector (experimental conditions) or px601 vector (empty vector) or pIRES-EYFP vector (positive transfection control). All transfections were performed in duplicates using Lipofectamine® 3000 Reagent (Life Technologies/ThermoFisher Scientific, Waltham, Mass.) according to the manufacturer's protocol. Twenty-four hours after transfection, a volume of 0.5 mL of culture medium was added per well (reaching a total volume of 1 mL per well). Cells were harvested 72 hours after transfection; culture medium was removed, cells were trypsinized using Gibco™ TrypLE™ Express (Life Technologies/ThermoFisher Scientific), pelleted and cell pellets were stored at −20° C. The transfection efficiency was evaluated immediately prior to harvesting of cells, by inspection of HEK293T cells transfected with pIRES-EYFP vector using a Leica MZ-FLIII fluorescence microscope equipped with a GFP filter set (Leica Microscopy Systems Ltd., Heerbrugg, Switzerland).
Genomic DNA was purified from the transfected cells using PureLink™ Genomic DNA Mini Kit (Invitrogen/ThermoFisher Scientific, Waltham, Mass.) as per the manufacturer's protocol. In order to investigate if genome editing occurred, locus PCR amplifying a 754 pb-region flanking the exon 24 of PPP1R12A gene was performed using primers MYPT12AE24F 5′-[…]-3′ (SEQ ID NO:3) (intronic region 155894 bp to 155913 bp on PPP1R12A ENSG00000058272) and MYPT12AE24R 5′-[…]-3′ (SEQ ID NO:4) (intronic region 156626 bp to 156647 bp on PPP1R12A ENSG00000058272). PCR conditions were as follows: 95° C. 5 min, then 95° C. 30 s, 53° C. 45 s, 72° C. 60 s for 30 cycles, with 5 min of final extension step at 72° C. PCR products were resolved by 2% agarose gel electrophoresis. When PCR product size was shorter than the control PCR product, genome editing occurred. For PCR products that could not be separated from the control product on 2% agarose gel due to the low resolution of the gel, a surveyor nuclease assay was performed using the Surveyor® Mutation Detection Kit (Integrated DNA Technologies, Coralville, Iowa) as per manufacturer's protocol for better visualization of the edits. The Surveyor® Mutation Detection Kit uses an endonuclease that cleaves DNA with high specificity at sites of mismatches and other distortions, allowing the detection of known and unknown DNA mutations. Briefly, target DNA is amplified by PCR from both wild-type (WT) and mutated DNA, WT and mutant DNA are then hybridized to form heteroduplexes, which are subsequently cleaved by the surveyor endonuclease. When no mutation is present, only homoduplexes are formed and no endonuclease-mediated cleavage is observed.

Where [5] appears, read: E24 cKO MA1s, highest concentration.

In the case of `CCN(CC)/[N+]([O-])=N/[O-].[Na+]` [DEA/NO], the EC50 in series [1] (E24 F/+ (cKO heterozygotes)) amounted to 3.3 ± 0.5 nM; in series [1] (E24 F/F (cKO homozygotes)) it was 2.1 ± 0.5 nM. The “maximal response to DEA/NO” value in series [1] (setting [5]) is on record as “complete relaxation”.
As for `CNC[C@H](O)c1cccc(O)c1` [PE, phenylephrine], the EC50 in series [2] (336 h, CON+HS (high salt 4% NaCl, 2 weeks)) was found to be 1000 ± 500 nM; in series [2] (CON mice), 500 ± 100 nM; in series [2] (CON+NS (normal salt diet)), 900 ± 400 nM; in series [2] (E24 F/+), 600 ± 200 nM; in series [2] (E24 F/F+HS), 3000 ± 1000 nM; in series [2] (E24 F/F+NS) it was 400 ± 200 nM. Besides, the EC50 in series [2] (E24 F/F) worked out at 900 ± 200 nM.
For the molecule `Nc1nc2c(nc(Br)n2[C@@H]2O[C@@H]3COP(=O)(O)O[C@H]3[C@H]2O)c(=O)[nH]1` [8-Br-cGMP, 8-bromo-cGMP], the EC50 in series [3] (CON mice) came out at 95.2 ± 11 nM; in series [3] (E24 F/+) it was 3 ± 2.5 nM; in series [3] (E24 F/F), 6 ± 1.5 nM. The “maximal response to 8-Br-cGMP” value in series [3] (setting [5]) is “complete relaxation”.

B1: sgRNA5: guide RNA, target … (SEQ ID NO: 9); tested cloned in px601 SaCas9 plasmid (nucleic acid)
guide: GCAUUAUUUAUUAAUCUGGGAGUUUUAGUACUCUGGAAACAGAAUCUACUAAAACAAGGCAAAAUGCCGUGUUUAUCUCGUCAACUUGUUGGCGAGAUUUUU
Take B1: in series [4], the “genome editing in vitro (in words)” value is given as “effective genome editing” and the “Surveyor nuclease products (sizes)” value was 120/630.

B2: sgRNA6: guide RNA, target … (SEQ ID NO: 10); tested cloned in px601 SaCas9 plasmid (nucleic acid)
guide: GUAUCUGAAAGGUGACCGGCGUUUUAGUACUCUGGAAACAGAAUCUACUAAAACAAGGCAAAAUGCCGUGUUUAUCUCGUCAACUUGUUGGCGAGAUUUUU
For the molecule B2, in series [4], the “genome editing in vitro (in words)” value was “effective genome editing” and the “Surveyor nuclease products (sizes)” value is given as 250/500.

B3: sgRNA9: guide RNA, target … (SEQ ID NO: 13); tested cloned in px601 SaCas9 plasmid (nucleic acid)
guide: GAGAAUGCUUAUCAUUUAAGGGUUUUAGUACUCUGGAAACAGAAUCUACUAAAACAAGGCAAAAUGCCGUGUUUAUCUCGUCAACUUGUUGGCGAGAUUUUU
Consider B3, for which, in series [4], the “genome editing in vitro (in words)” value was “effective genome editing” and the “Surveyor nuclease products (sizes)” value is on record as 330/420.

B4: sgRNA12: guide RNA, target … (SEQ ID NO: 16); tested cloned in px601 SaCas9 plasmid (nucleic acid)
guide: GAUACAAAGCUAUAAAGUCAGGUUUUAGUACUCUGGAAACAGAAUCUACUAAAACAAGGCAAAAUGCCGUGUUUAUCUCGUCAACUUGUUGGCGAGAUUUUU
As to B4, in series [4], the “genome editing in vitro (in words)” value is “effective genome editing” and the “Surveyor nuclease products (sizes)” value is given as 270/480.

B5: sgRNA11: guide RNA, target … (SEQ ID NO: 15); tested cloned in px601 SaCas9 plasmid (nucleic acid)
guide: GUUAUGUGUAGCAUUAAUGCAGUUUUAGUACUCUGGAAACAGAAUCUACUAAAACAAGGCAAAAUGCCGUGUUUAUCUCGUCAACUUGUUGGCGAGAUUUUU
Consider B5, for which, in series [4], the “genome editing in vitro (in words)” value is “effective genome editing” and the “Surveyor nuclease products (sizes)” value was 320/430.
